Measured values as given in patent EP3511005A1, “COMPOUNDS FOR USE IN TREATING HUTCHINSON-GILFORD PROGERIA SYNDROME” (Technische Universität München, priority 2018, dated 2019).
“And” between values parts separate entries of the source, which are not always exact repeats. Identical values can stand only once.

Columns and labels:
HGPS fibroblasts [1] = assay: Western blot analysis of progerin and lamin A/C levels in HGPS fibroblasts; type: cell-based, human; details: HGPS cells
Method: Primary dermal fibroblasts from subjects with HGPS were obtained from the Progeria Research Foundation. Two different fibroblasts derived from HGPS patients carrying the LMNA mutation G608G were used: HGADFN003 (person) and HGADFN127 (person). Control dermal fibroblasts were obtained from the Coriell Institute for Medical Research (Camden, NJ). The following cell lines were used: GMO1651C and GMO3349C. All cells were maintained at -80 °C in 90% fetal bovine serum (FBS) and 10% dimethyl sulfoxide (DMSO). The Institutional Review Board of the Technische Universität München (TUM) approved the use of human cells established from skin biopsies from patients with HGPS and unaffected individuals in this study.
Control and HGPS fibroblasts were cultured at 37 °C and 5% CO2 in Dulbecco's Modified Eagle Media (DMEM) (Gibco by life technologies) containing 15% FBS (Gibco by life technologies), 1% L-glutamine (Gibco by life technologies), 1% penicillin/streptomycin (Gibco by life technologies), and 2 ml of gentamycin (Gibco by life technologies). Mock-treated and baricitinib-treated fibroblasts were cultured in parallel. […] Three times a week the cells were re-fed with new culture media.
(§1) A similar quantitative Western Blot analysis was carried out in wild-type mouse fibroblasts compared to fibroblasts obtained from the progerin mouse model (see Figure 17).
Subsequently, the cell suspension was centrifuged for 5 min at 1200 rpm, the supernatant was aspirated, and the cells were washed with 4.5 ml PBS (Sigma). These steps were performed thrice in order to assure that all culture media is removed. Then, the cells were transferred to Eppendorf tubes with 1 ml PBS (Sigma) and the tubes were centrifuged for 5 min at 1200 rpm. […]
(§2) The total protein concentration of each gel electrophoresis loading sample was determined by using a series of dilutions of known concentrations of bovine serum albumin (BSA) to obtain a standard curve. […] The total protein concentration of each gel electrophoresis loading sample was calculated based on this standard curve. […]

[2] = tested on: mouse fibroblasts from a progerin mouse model; assay: Western blot analysis of progerin levels in mouse fibroblasts from progerin mouse model; type: cell-based; details: mouse progerin fibroblasts (LMNA G609G/G609G), 3 µM
Method: as §1
Subsequently, the cell suspension was centrifuged for 5 min at 1200 rpm, the supernatant was aspirated, and the cells were washed with 4.5 ml PBS (Sigma). These steps were performed thrice in order to assure that all culture media is removed. Then, the cells were transferred to Eppendorf tubes with 1 ml PBS (Sigma) and the tubes were centrifuged for 5 min at 1200 rpm. After fully aspirating PBS, the cell pellets were obtained. Following the generation of cell pellets, the next action was the preparation of the gel electrophoresis loading samples. The first step was the addition of 100 µl per 10^7 cells of Laemmli Buffer-inhibitor mix to each Eppendorf tube to lyse the fibroblasts and denature the proteins of the lysate. […]
as §2

[3] = tested on: control and progerin mouse cells; assay: Cell growth (proliferation) of mouse fibroblasts; type: cell-based; details: 3 µM
Method: First, control and HGPS fibroblasts were cultured at 37 °C and 5% CO2 in culture media without drug. […] Then, each type of fibroblasts was seeded in triplicate with 150.000 cells/dish at the four different conditions. After 4 days and 9 days, the number of cells harvested in each condition was counted, also using a CASY® Cell Counter (Roche). The cumulative population doubling was determined using equation 5. Cumulative Population Doubling = 3,32 × log((cells harvested)/(cells seeded)) [formula]

HGPS fibroblasts [4] = assay: Autophagy measurement in HGPS fibroblasts; type: cell-based, human; details: 0.25-1 µM, 4 or 9 days
Method: This assay uses monodansylcadaverine (MDC), a fluorescent compound that is incorporated into multilamellar bodies by both an ion trapping mechanism and the interaction with membrane lipids, as a probe for the detection of autophagic vacuoles in cells.
The staining solution was prepared by diluting Cell-Based Monodansylcadaverine 1:1000 in Cell Based Assay Buffer. The assay buffer was prepared by dissolving a Cell-Based Assay Buffer Tablet in 100 ml of distilled water. The plate was then incubated at 37 °C for 10 min and centrifuged for 5 min at 1200 rpm. Next, the supernatant was removed, 100 µl of Cell-Based Assay Buffer was added to each well and the plate was again centrifuged in the same conditions. […] Considering that the autophagy level in mock-treated control fibroblasts is 100%, the level of autophagy relative to mock-treated control fibroblasts for each condition was determined (see Figure 5).
Cell-Based Tamoxifen (100 mM), a known inducer of autophagy, was used as a positive control. This compound was initially added to a control culture diluted 1:50.000 into the culture media. Cell Based Assay Buffer was used as a negative blank control.

HGPS fibroblasts [5] = assay: 20S proteasome activity measurement in HGPS fibroblasts; type: cell-based, human; details: 0.25-1 µM, 4 or 9 days
Method: This assay uses a specific 20S substrate (SUC-LLVY-AMC) which, upon cleavage by the active enzyme, generates a fluorescent product that can be detected.
Next, the plate was again centrifuged in the same conditions, the supernatant was aspirated, and 100 µl of 20S Proteasome Lysis Buffer was added to each well. Then, the plate was incubated with gentle shaking for 30 min at room temperature to allow cell lysis and it was centrifuged at 1300 rpm for 7 min. Following centrifugation, 90 µl of the supernatant from each well was transferred to a new empty well together with 10 µl of substrate solution. The substrate solution was prepared by adding 25 µl of 20S Proteasome Substrate (SUC-LLVY-AMC) to 1 ml of 20S Proteasome Assay Buffer. […] Considering that the proteasomal activity in mock-treated control fibroblasts is 100%, the proteasomal activity relative to mock-treated control fibroblasts was calculated for each condition.
A Jurkat cell lysate supernatant which contains a high level of 20S activity was used as positive control (20S Proteasome Positive Control) and 20S Proteasome Assay Buffer was used as negative blank control.

HGPS fibroblasts [6] = assay: Intracellular ROS measurement in HGPS fibroblasts; type: cell-based, human; details: 0.25-1 µM, 4 or 9 days
From the text: This assay uses 2',7'-dichlorofluorescein diacetate (DCFDA), a cell permeant reagent that after entering the cell is deacetylated by cellular esterases to a non-fluorescent compound that is later oxidized by ROS into 2',7'-dichlorofluorescein (DCF). DCF is highly fluorescent and can be detected by fluorescence spectroscopy.
First, control and HGPS fibroblasts were harvested in the above mentioned conditions and, following trypsinization, the number of cells was counted with a CASY® Cell Counter (Roche). The fibroblasts from each condition were seeded in triplicate in a 96 well plate with 32.000 cells/well in 100 µl of culture media with the appropriate drug concentration, and the plate was incubated at 37 °C for 8 h. After the incubation, the culture media was aspirated, 100 µl of 1 x Buffer were added to each well, and the plate was centrifuged at 1200 rpm for 5 min. […] Following the addition of 1x Buffer, fluorescence was measured immediately in a FLUOstar Omega Microplate Reader (Omega BMG Labtech) using an excitation wavelength of 485 nm and an emission wavelength of 535 nm. Considering that the ROS level in mock-treated control fibroblasts is 100%, the ROS levels relative to mock-treated control fibroblasts were calculated for each condition. […]

HGPS fibroblasts [7] = assay: Intracellular ATP measurement in HGPS fibroblasts; type: cell-based, human; details: 0.25-1 µM, 4 or 9 days
Method: This assay relies in the properties of a proprietary thermostable luciferase which generates a stable luminescent signal that is proportional to the amount of ATP in the cells by catalyzing the mono-oxygenation of luciferin in the presence of Mg^2+, ATP and molecular oxygen.
This reagent is obtained by transferring 10 ml of CellTiter-Glo® Buffer into an amber bottle containing CellTiter-Glo® Substrate and then mixing it gently by vortexing. The plate was then mixed for 2 min in an orbital shaker to induce cell lysis and following that, it was incubated at room temperature for 10 min to stabilize the luminescent signal. Finally, luminescence was recorded in a FLUOstar Omega Microplate Reader (Omega BMG Labtech). Considering that the ATP level in mock-treated control fibroblasts is 100%, the ATP levels relative to mock-treated control fibroblasts were calculated for each condition.
Culture media without cells was used as a blank negative control to assure there is no interference with the luciferase reaction.

[8] = tested on: mouse fibroblasts from a progerin mouse model; assay: Autophagy measurement in mouse fibroblasts (monodansylcadaverine staining); details: 3 µM
Method: First, control and HGPS fibroblasts were harvested in the above mentioned conditions and, following trypsinization, the number of cells was counted with a CASY® Cell Counter (Roche). Afterwards, fibroblasts from each condition were seeded in triplicate in a 96 well plate with 32.000 cells/well in 100 µl of culture media with the appropriate drug concentration, and the plate was incubated at 37 °C for 8 h. After centrifuging the 96 well plate at 1200 rpm for 5 min, the culture media was aspirated from each well and 100 µl of staining solution was added. The staining solution was prepared by diluting Cell-Based Monodansylcadaverine 1:1000 in Cell Based Assay Buffer. The assay buffer was prepared by dissolving a Cell-Based Assay Buffer Tablet in 100 ml of distilled water. […] Lastly, after removing the supernatant, 100 µl of Cell-Based Assay Buffer was added to each well and the autophagic vacuole staining intensity was immediately detected in a FLUOstar Omega Microplate Reader (Omega BMG Labtech) using an excitation wavelength of 355 nm and an emission wavelength of 520 nm.

CCS(=O)(=O)N1CC(CC#N)(n2cc(-c3ncnc4[nH]ccc34)cn2)C1 [baricitinib] was tested, and the “reduction of levels of progerin” value (HGPS fibroblasts [1]; 4 days treatment with 1 µM, anti-progerin and anti-lamin A/C antibodies) was 15%, the progerin levels decreased (HGPS fibroblasts [1]; 9 days treatment with 1 µM) was 33% and the “lamin A and lamin C levels” value (HGPS fibroblasts [1]; long-term treatment) was “remained constant”. For the same compound, the “levels of progerin decrease” value ([2]; day 4) was 18%, the “levels of progerin decrease” value ([2]; day 9) was 35% and 35.6% and the cell growth [3] was “ameliorate cell growth”. The autophagy activity (HGPS fibroblasts [4]) was “increase”, the proteasome activity (HGPS fibroblasts [5]) was “increase” and the ROS levels (HGPS fibroblasts [6]) was “decrease”. The ATP levels (HGPS fibroblasts [7]) was “increase”, the levels of autophagy ([8]; both control and progerin mouse fibroblasts) was “increases” and the “levels of autophagy increased” value ([8]; progerin mouse fibroblast relative to mock-treated control cells) was 39.9%.
